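Test compounds were applied to cells in 96-well plates for 48 hours at 5 doses. TGI: concentration producing complete growth inhibition.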
Key:
Test in all cases: DTP human tumour cell line panel, 48 h
T-47D breast = system: T-47D breast
MCF7 breast = system: MCF7 breast
NCI/ADR-RES ovarian = system: NCI/ADR-RES ovarian
OVCAR-3 ovarian = system: OVCAR-3 ovarian
SF-539 CNS = system: SF-539 CNS
LOX IMVI melanoma = system: LOX IMVI melanoma
NCI-H23 lung = system: NCI-H23 lung
SK-MEL-28 melanoma = system: SK-MEL-28 melanoma
SR leukemia = system: SR leukemia
COLO 205 colon = system: COLO 205 colon
HOP-92 NSCLC = system: HOP-92 NSCLC
RXF 393 renal = system: RXF 393 renal
HT29 colon = system: HT29 colon
SK-MEL-5 melanoma = system: SK-MEL-5 melanoma
SNB-19 CNS = system: SNB-19 CNS
M14 melanoma = system: M14 melanoma
A498 renal = system: A498 renal
UACC-62 melanoma = system: UACC-62 melanoma
HOP-62 NSCLC = system: HOP-62 NSCLC
HS 578T breast = system: HS 578T breast
MDA-MB-231 breast = system: MDA-MB-231 breast
A549 NSCLC = system: A549 NSCLC
ACHN renal = system: ACHN renal
MDA-MB-435 = system: MDA-MB-435
MDA-N = system: MDA-N
SF-295 CNS = system: SF-295 CNS
CAKI-1 renal = system: CAKI-1 renal
BT-549 breast = system: BT-549 breast
NCI-H226 lung = system: NCI-H226 lung
HL-60(TB) leukemia = system: HL-60(TB) leukemia
786-0 renal = system: 786-0 renal
KM12 colon = system: KM12 colon
HCT-116 colon = system: HCT-116 colon
MOLT-4 leukemia = system: MOLT-4 leukemia
SN12C renal = system: SN12C renal
SK-OV-3 ovarian = system: SK-OV-3 ovarian
IGROV1 ovarian = system: IGROV1 ovarian
PC-3 prostate = system: PC-3 prostate
NCI-H460 lung = system: NCI-H460 lung
CCRF-CEM leukemia = system: CCRF-CEM leukemia
UACC-257 melanoma = system: UACC-257 melanoma
TK-10 renal = system: TK-10 renal
OVCAR-4 ovarian = system: OVCAR-4 ovarian
SW-620 colon = system: SW-620 colon
K-562 leukemia = system: K-562 leukemia
UO-31 renal = system: UO-31 renal
DU-145 prostate = system: DU-145 prostate
EKVX NSCLC = system: EKVX NSCLC
SF-268 CNS = system: SF-268 CNS
HCT-15 colon = system: HCT-15 colon
OVCAR-5 ovarian = system: OVCAR-5 ovarian
RPMI-8226 leukemia = system: RPMI-8226 leukemia
OVCAR-8 ovarian = system: OVCAR-8 ovarian
SK-MEL-2 melanoma = system: SK-MEL-2 melanoma
SNB-75 CNS = system: SNB-75 CNS
U251 CNS = system: U251 CNS
HCC-2998 colon = system: HCC-2998 colon
NCI-H522 lung = system: NCI-H522 lung
MALME-3M melanoma = system: MALME-3M melanoma

Structure (SMILES): N=C(N)SCCc1ccncc1
- TGI (T-47D breast): > 100 µM
- TGI (MCF7 breast): > 100 µM
- TGI (NCI/ADR-RES ovarian): > 100 µM
- TGI (OVCAR-3 ovarian): > 100 µM
- TGI (SF-539 CNS): > 100 µM
- TGI (LOX IMVI melanoma): > 100 µM
- TGI (NCI-H23 lung): > 100 µM
- TGI (SK-MEL-28 melanoma): > 100 µM
- TGI (SR leukemia): > 100 µM
- TGI (COLO 205 colon): > 100 µM
- TGI (HOP-92 NSCLC): > 100 µM
- TGI (RXF 393 renal): > 100 µM
- TGI (HT29 colon): > 100 µM
- TGI (SK-MEL-5 melanoma): > 100 µM
- TGI (SNB-19 CNS): > 100 µM
- TGI (M14 melanoma): > 100 µM
- TGI (A498 renal): > 100 µM
- TGI (UACC-62 melanoma): > 100 µM
- TGI (HOP-62 NSCLC): > 100 µM
- TGI (HS 578T breast): > 100 µM
- TGI (MDA-MB-231 breast): > 100 µM
- TGI (A549 NSCLC): > 100 µM
- TGI (ACHN renal): > 100 µM
- TGI (MDA-MB-435): > 100 µM
- TGI (MDA-N): > 100 µM
- TGI (SF-295 CNS): > 100 µM
- TGI (CAKI-1 renal): > 100 µM
- TGI (BT-549 breast): > 100 µM
- TGI (NCI-H226 lung): > 100 µM
- TGI (HL-60(TB) leukemia): > 100 µM
- TGI (786-0 renal): > 100 µM
- TGI (KM12 colon): > 100 µM
- TGI (HCT-116 colon): > 100 µM
- TGI (MOLT-4 leukemia): > 100 µM
- TGI (SN12C renal): > 100 µM
- TGI (SK-OV-3 ovarian): > 100 µM
- TGI (IGROV1 ovarian): > 100 µM
- TGI (PC-3 prostate): > 100 µM
- TGI (NCI-H460 lung): > 100 µM
- TGI (CCRF-CEM leukemia): > 100 µM
- TGI (UACC-257 melanoma): > 100 µM
- TGI (TK-10 renal): > 100 µM
- TGI (OVCAR-4 ovarian): > 100 µM
- TGI (SW-620 colon): > 100 µM
- TGI (K-562 leukemia): > 100 µM
- TGI (UO-31 renal): > 100 µM
- TGI (DU-145 prostate): > 100 µM
- TGI (EKVX NSCLC): > 100 µM
- TGI (SF-268 CNS): > 100 µM
- TGI (HCT-15 colon): > 100 µM
- TGI (OVCAR-5 ovarian): > 100 µM
- TGI (RPMI-8226 leukemia): > 100 µM
- TGI (OVCAR-8 ovarian): > 100 µM
- TGI (SK-MEL-2 melanoma): > 100 µM
- TGI (SNB-75 CNS): > 100 µM
- TGI (U251 CNS): > 100 µM

Structure (SMILES): CN1CCN(CC(=O)Nc2cccc3ccccc23)CC1
- TGI (T-47D breast): > 100 µM
- TGI (MCF7 breast): > 100 µM
- TGI (NCI/ADR-RES ovarian): > 100 µM
- TGI (OVCAR-3 ovarian): > 100 µM
- TGI (SF-539 CNS): > 100 µM
- TGI (LOX IMVI melanoma): > 100 µM
- TGI (HCC-2998 colon): > 100 µM
- TGI (NCI-H23 lung): > 100 µM
- TGI (SK-MEL-28 melanoma): > 100 µM
- TGI (SR leukemia): > 100 µM
- TGI (COLO 205 colon): > 100 µM
- TGI (NCI-H522 lung): > 100 µM
- TGI (HOP-92 NSCLC): > 100 µM
- TGI (RXF 393 renal): > 100 µM
- TGI (HT29 colon): > 31.6 µM
- TGI (SK-MEL-5 melanoma): > 100 µM
- TGI (SNB-19 CNS): > 100 µM
- TGI (M14 melanoma): > 100 µM
- TGI (A498 renal): > 100 µM
- TGI (UACC-62 melanoma): > 100 µM
- TGI (MALME-3M melanoma): > 100 µM
- TGI (HOP-62 NSCLC): > 100 µM
- TGI (HS 578T breast): > 100 µM
- TGI (MDA-MB-231 breast): > 100 µM
- TGI (A549 NSCLC): > 100 µM
- TGI (ACHN renal): > 100 µM
- TGI (MDA-MB-435): > 100 µM
- TGI (MDA-N): > 100 µM
- TGI (SF-295 CNS): > 100 µM
- TGI (CAKI-1 renal): > 100 µM
- TGI (BT-549 breast): > 100 µM
- TGI (NCI-H226 lung): > 100 µM
- TGI (HL-60(TB) leukemia): > 100 µM
- TGI (786-0 renal): > 100 µM
- TGI (KM12 colon): > 100 µM
- TGI (HCT-116 colon): > 100 µM
- TGI (MOLT-4 leukemia): > 100 µM
- TGI (SN12C renal): > 100 µM
- TGI (SK-OV-3 ovarian): > 100 µM
- TGI (IGROV1 ovarian): > 100 µM
- TGI (PC-3 prostate): > 100 µM
- TGI (NCI-H460 lung): > 100 µM
- TGI (CCRF-CEM leukemia): > 100 µM
- TGI (UACC-257 melanoma): > 100 µM
- TGI (TK-10 renal): > 100 µM
- TGI (OVCAR-4 ovarian): > 100 µM
- TGI (SW-620 colon): > 100 µM
- TGI (K-562 leukemia): > 100 µM
- TGI (UO-31 renal): > 100 µM
- TGI (DU-145 prostate): > 100 µM
- TGI (EKVX NSCLC): > 100 µM
- TGI (SF-268 CNS): > 100 µM
- TGI (HCT-15 colon): > 100 µM
- TGI (OVCAR-5 ovarian): > 100 µM
- TGI (RPMI-8226 leukemia): > 100 µM
- TGI (OVCAR-8 ovarian): > 100 µM
- TGI (SK-MEL-2 melanoma): > 100 µM
- TGI (U251 CNS): > 100 µM

Structure (SMILES): CC1CCC2(NC1)OC1CC3C4CCC5CC(OC6OC(CO)C(OC7OC(CO)C(O)C(OC8OCC(O)C(O)C8O)C7OC7OC(CO)C(O)C(O)C7O)C(O)C6O)CCC5(C)C4CCC3(C)C1C2C (centres undefined)
- TGI (T-47D breast): 5.07 µM
- TGI (MCF7 breast): 6.3 µM
- TGI (NCI/ADR-RES ovarian): 3.93 µM
- TGI (OVCAR-3 ovarian): 3.12 µM
- TGI (LOX IMVI melanoma): > 100 µM
- TGI (HCC-2998 colon): 2.78 µM
- TGI (SK-MEL-28 melanoma): 3.46 µM
- TGI (SR leukemia): > 100 µM
- TGI (COLO 205 colon): 4 µM
- TGI (NCI-H522 lung): 3.12 µM
- TGI (HT29 colon): 3.26 µM
- TGI (SK-MEL-5 melanoma): 3.56 µM
- TGI (SNB-19 CNS): 3.38 µM
- TGI (M14 melanoma): 3.02 µM
- TGI (A498 renal): 3.75 µM
- TGI (UACC-62 melanoma): 2.65 µM
- TGI (MALME-3M melanoma): 2.83 µM
- TGI (HOP-62 NSCLC): 3.68 µM
- TGI (HS 578T breast): 3.85 µM
- TGI (MDA-MB-231 breast): 3.4 µM
- TGI (A549 NSCLC): 4.99 µM
- TGI (ACHN renal): 4.82 µM
- TGI (MDA-MB-435): 3.03 µM
- TGI (MDA-N): 1.02 µM
- TGI (SF-295 CNS): 2.32 µM
- TGI (CAKI-1 renal): 2.11 µM
- TGI (BT-549 breast): 5.97 µM
- TGI (NCI-H226 lung): 3.72 µM
- TGI (HL-60(TB) leukemia): 4.93 µM
- TGI (KM12 colon): 4.64 µM
- TGI (HCT-116 colon): 6.98 µM
- TGI (SN12C renal): 3.32 µM
- TGI (IGROV1 ovarian): 1.86 µM
- TGI (PC-3 prostate): 1.05 µM
- TGI (NCI-H460 lung): 4.16 µM
- TGI (CCRF-CEM leukemia): > 22 µM
- TGI (UACC-257 melanoma): 4.65 µM
- TGI (TK-10 renal): 3.4 µM
- TGI (OVCAR-4 ovarian): 3.1 µM
- TGI (SW-620 colon): 3.94 µM
- TGI (K-562 leukemia): > 21.2 µM
- TGI (UO-31 renal): 2.69 µM
- TGI (DU-145 prostate): 3.46 µM
- TGI (EKVX NSCLC): 2.37 µM
- TGI (SF-268 CNS): 3.32 µM
- TGI (OVCAR-5 ovarian): 2.73 µM
- TGI (RPMI-8226 leukemia): 4.01 µM
- TGI (SK-MEL-2 melanoma): 3.75 µM
- TGI (SNB-75 CNS): 3.56 µM
- TGI (U251 CNS): 3.07 µM

Reference: PubChem BioAssay (NCI)
